These results are taken from patent US5936097A, “4,9-ethano-benzo(F)isoindole derivatives as farnesyl transferase inhibitors” (Rhone-Poulenc Rorer, S.A., priority 1995, dated 1999).

For this experiment, the target named is T1, human farnesyl transferase (Homo sapiens, UniProt P49354+P49356).
T1 construct: human farnesyl transferase purified from THP1 cell cultures; endogenous in cells; host or cells: THP1 cell cultures (enzyme purified from the cells)
Briefly: inhibition of farnesyl transferase ((3H) farnesyl transfer from (3H) FPP to p21 H-ras). Type of experiment: biochemical. On the procedure: Farnesyl transferase activity is determined by the amount of (^3 H) farnesyl transferred from (^3 H) farnesylpyrophosphate [(^3 H) FPP] to the p21 H-ras protein. The standard reaction mixture is composed, for a final volume of […], of 50 mM Tris-HCl, 5 mM MgCl2, 5 mM dithiotreitol, 0.2% octyl b-D-glucopyranoside, 200 picomol p21 H-ras, 4.5 picomol (^3 H) FPP (activity 61000 dpm/picomol).
Reaction is initiated by adding approximately 5 ng of human farnesyl transferase purified from THP1 cell cultures. After incubation for 20 minutes at 37° C. in a microtitration plate containing 96 1-cm^3 wells per plate (Titer Plate®, Beckman), the reaction is stopped by adding 0.4 cm^3 of 0.1% SDS in methanol at 0° C. The mixture is then treated with 0.4 cm^3 of 30% trichloroacetic® acid (TCA) in methanol. The plates are left in ice for 1 hour. The precipitated contents are then retained on Filtermat®, Pharmacia), glass® fibre membranes with the filtration unit (Combi Cell Harvester®, Skatron), and rinsed with 6% trichloroacetic acid in distilled water. The membranes are dried in a microwave oven, then impregnated with scintillation medium by melting of Meltilex® (Pharmacia) under hot air, and lastly counted in cpm in a b-Plate counter® (LKB). Each test is repeated 3 times.
The unit of activity is defined as 1 picomole of (^3 H) FPP transferred to p21 H-ras in 20 minutes.
The percentage inhibition values are obtained by comparison of the tests with and without inhibitor after deduction of blanks, the IC50 values being measured on the basis of the inhibitions obtained with 9 different concentrations using Enzfitter® or Grafit® software.

Where [1] appears, read: human farnesyl transferase purified from THP1 cell cultures, p21 H-ras substrate, 20 minutes at 37° C., 9 concentrations, read-out: in vitro inhibitory activity IC50.

Where two headings read alike, the source gives them in different places.

As to `CCOC(=O)CC(=O)N[C@]12CN(C(=O)Cc3ccccc3OC)C[C@H]1[C@@]1(c3ccccc3)CC[C@@H]2c2ccccc21` (relative stereo) [Example 15, (3aRS, 4SR, 9SR, 9aRS)-4,9-ethano-3a-ethoxycarbonylacetylamino-2-(2-methoxyphenyl)acetyl-9-phenyl-2,3,3a,4,9,9a-hexahydro-1H-benzo[f]isoindole], the IC50 under setting [1] worked out at 9 µM.

Consider `COc1ccccc1CC(=O)N1C[C@H]2[C@@]3(c4ccccc4)CC[C@H](c4ccccc43)[C@@]2(NC(=O)CN)C1` (relative stereo) [Example 12, (3aRS, 4SR, 9SR, 9aRS)-3a-glycylamino-4,9-ethano-2-(2-methoxyphenyl)acetyl-9-phenyl-2,3,3a,4,9,9a-hexahydro-1H-benzo[f]isoindole], for which the IC50 under setting [1] was determined as 7.5 µM.

On to `C=C(C(=O)N1C[C@H]2[C@@]3(c4ccccc4)CC[C@H](c4ccccc43)[C@@]2(C(=O)NCc2ccccn2)C1)c1ccccc1OC` [Example 93, (3aS,4R,9R,9aS)-N-[(2-pyridyl)-methyl]-4,9-ethano-2-[(2-methoxyphenyl)prop-2-en-1-oyl]-9-phenyl-2,3,3a,4,9,9a-hexahydro-1H-benzo[f]isoindole-3a-carboxamide], for which, under setting [1], the IC50 stood at 0.45 µM.

`COc1ccccc1C(=O)C(=O)N1C[C@@H]2[C@]3(c4ccccc4)CC[C@@H](c4ccccc43)[C@]2(C(=O)O)C1` (racemic) [Example 42, (3aRS,4SR,9SR,9aRS)-4,9-ethano-2-[2-(2-methoxyphenyl)-2-oxoacetyl]-9-phenyl-2,3,3a,4,9,9a-hexahydro-1H-benzo[f]isoindole-3a-carboxylic acid]: half-maximal inhibition (IC50) required 8.45 µM.

Turning to `C=C(C(=O)N1C[C@H]2[C@@]3(c4ccccc4)CC[C@H](c4ccccc43)[C@@]2(C(=O)NC(C)(C)c2ccccc2)C1)c1ccccc1OC` [Example 86, (3aS,4R,9R,9aS)-N-(2,2-dimethylbenzyl)-4,9-ethano-2[-(2-methoxyphenyl)prop-2-en-1-oyl]-9-phenyl-2,3,3a,4,9,9a-hexahydro-1H-benzo[f]isoindole-3a-carboxamide], the IC50 under setting [1] was determined as 4.85 µM.

Consider `C=C(C(=O)N1C[C@H]2[C@@]3(c4ccccc4)CC[C@H](c4ccccc43)[C@@]2(C(=O)NCc2ccccc2OC)C1)c1ccccc1OC` [Example 82], for which the IC50 under setting [1] amounted to 0.21 µM.

Turning to `COc1ccccc1CC(=O)N1C[C@H]2[C@@]3(c4ccccc4)CC[C@H](c4ccccc43)[C@@]2(CCC(=O)O)C1` (relative stereo) [Example 25, 3-[(3aRS, 4SR, 9SR, 9aRS)-4,9-ethano-2-(2-methoxyphenyl)acetyl-9-phenyl-1,2,3,3a,9,9a-hexahydro-1H-benzo[f]isoindol-3a-yl]propionic acid], the IC50 under setting [1] was determined as 2.6 µM.

`COc1ccccc1CC(=S)N1C[C@@H]2[C@]3(c4ccccc4)CC[C@@H](c4ccccc43)[C@]2(C(=O)O)C1` (relative stereo) [Example 65, (3aRS,4SR,9SR,9aRS)-4,9-Ethano-2-(2-methoxyphenyl)thioacetyl-9-phenyl-2,3,3a,4,9,9a-hexahydro-1H-benzo[f]isoindole-3a-carboxylic acid] showed an IC50 of 0.41 µM.

For the compound `COc1ccc2c(c1)[C@]1(c3ccccc3)CC[C@H]2[C@@]2(C(=O)O)CN(C(=O)Cc3ccccc3OC)C[C@@H]12` (relative stereo) [Example 70, (3aRS,4SR,9SR,9aRS)-4,9-ethano-7-methoxy-2-(2-methoxy-phenyl)acetyl-9-phenyl-2,3,3a,4,9,9a-hexahydro-1H-benzo[f]isoindole-3a-carboxylic acid], under setting [1], the IC50 was determined as 2.85 µM.

Compound `C=C(C(=O)N1C[C@@H]2[C@]3(c4ccccc4)CC[C@@H](c4ccccc43)[C@]2(C(=O)O)C1)c1ccccc1OC` (relative stereo) [Example 38, (3aRS,4SR,9SR,9aRS)-4,9-ethano-2-[2-(2-methoxyphenyl)prop-2-en-1-oyl]-9-phenyl-2,3,3a,4,9,9a-hexahydro-1H-benzo[f]isoindole-3a-carboxylic acid] registered an IC50 of 0.1 µM.

Consider `COc1ccccc1CC(=O)N1C[C@@H]2[C@]3(c4ccccc4)CC[C@@H](c4ccccc43)[C@]2(C(=O)NN)C1` (relative stereo) [Example 58, hydrazide of (3aRS,4SR,9SR,9aRS)-4,9-ethano-2-(2-methoxyphenyl)acetyl-9-phenyl-2,3,3a,4,9,9a-hexahydro-1H-benzo[f]isoindole-3a-carboxylic acid], for which, under setting [1], the IC50 worked out at 5.05 µM.

Regarding `COc1ccccc1CC(=O)N1C[C@@H]2[C@]3(c4ccccc4)CC[C@@H](c4ccccc43)[C@]2(C(=O)N(C)C)C1` (relative stereo) [Example 55, (3aRS,4SR,9SR,9aRS)-N,N-dimethyl-4,9-ethano-2-(2-methoxyphenyl)acetyl-9-phenyl-2,3,3a,4,9,9a-hexahydro-1H-benzo[f]isoindole-3a-carboxamide], under setting [1], the IC50 stood at 3.9 µM.

With `COc1ccc(CSSCc2ccc(OC)c(CC(=O)N3CC4C5(c6ccccc6)CCC(c6ccccc65)C4(C(=O)O)C3)c2)cc1CC(=O)N1CC2C3(c4ccccc4)CCC(c4ccccc43)C2(C(=O)O)C1` (racemic) [Example 37, disulphide of (3aRS, 4SR, 9SR, 9aRS)-4,9-ethano-2-(2-methoxy-5-(mercaptomethyl)-phenyl)acetyl-9-phenyl-2,3,3a,4,9,9a-hexahydro-1H-benzo[f]isoindole-3a-carboxylic acid], the IC50 under setting [1] was 7.4 µM.

Regarding `COc1ccccc1CC(=O)N1C[C@H]2[C@@]3(c4ccccc4)CC[C@H](c4ccccc43)[C@@]2(C(N)=O)C1` (relative stereo) [Example 3, (3aRS, 4SR, 9SR, 9aRS)-4,9-ethano-2-(2-methoxyphenyl)acetyl-9-phenyl-2,3,3a,4,9,9a-hexahydro-1H-benzo[f]isoindole-3a-carboxamide], under setting [1], the IC50 is 4.7 µM.

For `C=C(C(=O)N1C[C@H]2[C@@]3(c4ccccc4)CC[C@H](c4ccccc43)[C@@]2(C(=O)N[C@H](CO)c2ccccc2)C1)c1ccccc1OC` [Example 85, (3aS,4R,9R,9aS)-N-[1-(S)-1-phenyl-2-hydroxyethyl]-4,9-ethano-2[-(2-methoxyphenyl)prop-2-en-1-oyl]-9-phenyl-2,3,3a,4,9,9a-hexahydro-1H-benzo[f]isoindole-3a-carboxamide], the IC50 under setting [1] is 0.26 µM.

As for `COc1ccccc1CCC(=O)N1C[C@@H]2[C@]3(c4ccccc4)CC[C@@H](c4ccccc43)[C@]2(C(=O)O)C1` (relative stereo) [Example 59, (3aRS,4SR,9SR,9aRS)-4,9-Ethano-2-(2-methoxyphenyl)propionyl-9-phenyl-2,3,3a,4,9,9a-hexahydro-1H-benzo[f]isoindole-3a-carboxylic acid], the IC50 was found to be 5 µM.

In turn, `O=C(Cc1ccccc1Cl)N1C[C@@H]2[C@]3(c4ccccc4)CC[C@@H](c4ccccc43)[C@]2(C(=O)O)C1` (relative stereo) [Example 61, (3aRS,4SR,9SR,9aRS)-4,9-Ethano-2-(2-chlorophenyl)acetyl-9-phenyl-2,3,3a,4,9,9a-hexahydro-1H-benzo[f]isoindole-3a-carboxylic acid] returned an IC50 of 4.7 µM.

`O=C(Cc1ccccc1F)N1C[C@@H]2[C@]3(c4ccccc4)CC[C@@H](c4ccccc43)[C@]2(C(=O)O)C1` (relative stereo) [Example 63, (3aRS,4SR,9SR,9aRS)-4,9-Ethano-2-(2-fluorophenyl)acetyl-9-phenyl-2,3,3a,4,9,9a-hexahydro-1H-benzo[f]isoindole-3a-carboxylic acid] returned an IC50 of 7 µM.

For the compound `COc1ccccc1CC(=O)N1C[C@H]2[C@@]3(c4ccccc4)CC[C@H](c4ccccc43)[C@@]2(C(=O)N(C)OC)C1` (relative stereo) [Example 68, (3aRS,4SR,9SR,9aRS)-N-methoxy-N-methyl-4,9-ethano-2-(2-methoxy-phenyl)acetyl-9-phenyl-2,3,3a,4,9,9a-hexahydro-1H-benzo[f]isoindole-3a-carboxamide], under setting [1], the IC50 amounted to 2.25 µM.

Turning to `C/C=C(/C(=O)N1C[C@@H]2[C@]3(c4ccccc4)CC[C@@H](c4ccccc43)[C@]2(C(=O)O)C1)c1ccccc1OC` (racemic) [Example 78, (3aRS,4SR,9SR,9aRS)-4,9-ethano-2-[2(E)-(2-methoxyphenyl)-2-butenoyl]-9-phenyl-2,3,3a,4,9,9a-hexahydro-1H-benzo[f]isoindole-3a-carboxylic acid], the IC50 under setting [1] was 0.65 µM.

`CCOc1ccccc1CC(=O)N1C[C@H]2[C@@]3(c4ccccc4)CC[C@H](c4ccccc43)[C@@]2(C(=O)O)C1` (relative stereo) [Example 74, (3aRS,4SR,9SR,9aRS)-4,9-ethano-2-(2-ethoxyphenyl)acetyl-9-phenyl-2,3,3a,4,9,9a-hexahydro-1H-benzo[f]isoindole-3a-carboxylic acid] showed an IC50 of 0.19 µM.

In the case of `CNCCNC(=O)[C@]12CN(C(=O)Cc3ccccc3OC)C[C@H]1[C@@]1(c3ccccc3)CC[C@@H]2c2ccccc21` (relative stereo) [Example 5, (3aRS, 4SR, 9SR, 9aRS)-N-(2-methylaminoethyl)-4,9-ethano-2-(2-methoxyphenyl)acetyl-9-phenyl-2,3,3a,4,9,9a-hexahydro-1H-benzo[f]isoindole-3a-carboxamide], under setting [1], the IC50 amounted to 7 µM.
